The source of these data is US6399567B1, “Cyclic hexapeptides having antibiotic activity” (Fujisawa Pharmaceutical Co., Ltd., priority 1996, dated 2002).

By melting point is commonly meant the temperature of the solid-liquid transition.

One data set relates to Candida albicans FP633. In words: Antimicrobial activity, serial broth dilution method (96-well microtiter plate). As to conditions: MEM, 1×10^5 cfu/ml, 37° C. for 24 hours, microscopic observation. The data set is classed as cell-based. The method, then:
(§1) Test (Antimicrobial activity):
(§2) Test Compound The object compound of Example 1
(§3) Antimicrobial activity of the object compound of Example 1 was determined by a serial broth dilution method using 96-well microtiter plate in 100 μl of MEM (Eagle's minimum essential medium) for Candida albicans and in 100 μl of yeast nitrogen base dextrose medium for both Asperaillus fumigatus and Cryptococcus neoformans. The inoculum was adjusted to 1×10^5 colony forming units/ml. Candida albicans and Asperaillus fumigatus were cultured at 37° C. for 24 hours and Cryptococcus neoformans was cultured at 37° C. for 48 hours in 5% CO2 incubator. After incubation, the growth inhibition of microorganisms in each well was determined by microscopic observation. The results were shown as MEC (minimum effective concentration: μg/ml) value (Table 2).

For data set [1], the system named is Aspergillus fumigatus FP1305. The description is as above. Format: cell-based. The following applies: yeast nitrogen base dextrose medium, 1×10^5 cfu/ml, 37° C. for 24 hours, microscopic observation. The method, then: as §1, §2, §3
Data set [2] can be described thus: Solubility (physico-chemical properties).

As to `CCCCCCCCCCCCCCCC(=O)NC1CC(O)C(O)NC(=O)C2C(O)CCN2C(=O)C(C(O)CC(N)=O)NC(=O)C(C(O)C(O)c2ccc(O)c(OS(=O)(=O)[O-])c2)NC(=O)C2CC(O)CN2C(=O)C(C(C)O)NC1=O.[Na+]` (stereo not drawn) [Example 1], the melting point is 165 to 170 °C (dec.). The “MEC (minimum effective concentration)” value in the data set with Candida albicans FP633 was found to be 0.04 µg/mL. Also, the “MEC (minimum effective concentration)” value in data set [1] is 0.08 µg/mL. Also, the Solubility result in data set [2] (acetone) was “slightly soluble”. Further, the Solubility entry in data set [2] (chloroform) is “insoluble”. Further, in data set [2] (ethyl acetate), the Solubility entry was “slightly soluble”. The Solubility entry in data set [2] (methanol) is “soluble”. Besides, the Solubility result in data set [2] (water) is on record as “soluble”.

`CC(O)C1NC(=O)C(N)CC(O)C(O)NC(=O)C2C(O)CCN2C(=O)C(C(O)CC(N)=O)NC(=O)C(C(O)C(O)c2ccc(O)c(OS(=O)(=O)O)c2)NC(=O)C2CC(O)CN2C1=O` (stereo not drawn) [Example 2] displayed a melting point of 150 to 155 °C.
